Measurements: patent publication US6348614B1 (priority 1996, dated 2002)
Like-named read-outs stand apart in the source and are kept apart here.

What was measured:
Phytophthora infestans [1] = assay type: in vivo
Phytophthora infestans [2] = assay type: in vivo; remark: listed apart in the source
[3] = system: Erysiphe graminis tritici; experiment: Powdery mildew in wheat, additional examples (Table 6); assay type: in vivo; settings: 500 ppm, 7 days after inoculation
Procedure: Wheat plants (cv.Shafir) were raised from seed in the greenhouse, 30 plants per 0.2 liter pot. When the first leaf was fully developed plants were sprayed with the test solutions and placed in a 20° C. growth cabinet. Two days after spraying plants were dusted with conidia of E. graminis tritict so that about 100 spores were settled on 1 cm^2 of leaf area (both surfaces). […] Control efficacy was calculated relative to number of colonies developed on the control-inoculated untreated plants.

[4] = system: Pseudoperonospora cubensis; experiment: Downy mildew in melon (Table 7); settings: 500 ppm, 7 days after inoculation
Procedure: Cucumber plants (cv,Dlila) and melon plants (cv.Ein Dor) were raised from seeds in 0.2 liter pots in the greenhouse. At 3 weeks after sowing when had 3 true leaves they were inoculated with sporangial suspension (1000 sporangia/ml) of P.cubensis (resistant to metalaxyl) and placed in 100% relative humidity in the dark for 20 hr. They were then place in a 20° C. growth cabinet for 7 days and assessed for disease development. Percentage leaf area covered with disease symptoms was evaluated and control efficacy was calculated relative to control inoculated plants.

Plasmopara viticola = experiment: Downy mildew in grapes (Table 9); assay type: in vivo; settings: 500 ppm, 10 days after inoculation
Procedure: Two days after spraying plants were inoculated with sporangial suspension of P.viticola ([…]) onto their lower leaf surface and placed in 100% relative humidity for 20 hr. The plants were then placed in a growth cabinets 20° C. for 10 days. Disease development was assessed according to the abaxial leaf surfaces area covered with fungal sporulation.

[5] = potato, 2000 ppm, 3 days after inoculation
[6] = potato, 2000 ppm, 4 days after inoculation
[7] = potato, 2000 ppm, 6 days after inoculation
[8] = potato, 2000 ppm, 8 days after inoculation

| Compound | Control efficacy (%) 7d [3] | Control efficacy % 7 days [4] | Control efficacy % 10d (Plasmopara viticola) | further results |
| --- | --- | --- | --- | --- |
| CC(CC(=O)Nc1ccccc1)NS(=O)(=O)c1ccccc1 (racemic) [Example 2, D,L-N-benzensulfonyl-3-aminobutyranilide] | – | – | – | Control Efficacy % (Phytophthora infestans [1]; Potato, 14.8.96, 2000 ppm): 74%; Control Efficacy % (Phytophthora infestans [1]; Potato, 17.7.096, 500 ppm): 45%; Control Efficacy % (Phytophthora infestans [1]; Potato, 17.7.096, 2000 ppm): 81%; Control Efficacy % (Phytophthora infestans [1]; Potato, 26.7.96, 500 ppm): 42%; Control Efficacy % (Phytophthora infestans [1]; Potato, 26.7.96, 2000 ppm): 68%; Control Efficacy % (Phytophthora infestans [2]; Tomato, 12.7.96, 500 ppm): 85%; Control Efficacy % (Phytophthora infestans [2]; Tomato, 12.7.96, 2000 ppm): 85%; Control Efficacy % (Phytophthora infestans [2]; Tomato, 14.8/96, 2000 ppm): 83% |
| CCCCCCCCOC(=O)CC(C)NS(=O)(=O)c1ccccc1 (racemic) [Example 7, DL-N-benzenesulfonyl-3-aminobutyric acid n-octyl ester] | – | – | – | Control Efficacy % (Phytophthora infestans [1]; [5]): 100%; Control Efficacy % (Phytophthora infestans [1]; [6]): 100%; Control Efficacy % (Phytophthora infestans [1]; [7]): 82%; Control Efficacy % (Phytophthora infestans [1]; [8]): 77% |
| CC(CC(=O)OCCCl)NC(=O)c1ccccc1 (racemic) [Example 11, DL-N-benzoyl-3-aminobutyric acid 2-chloroethyl ester] | – | – | – | Control Efficacy % (Phytophthora infestans [1]; [5]): 95%; Control Efficacy % (Phytophthora infestans [1]; [6]): 92%; Control Efficacy % (Phytophthora infestans [1]; [7]): 82%; Control Efficacy % (Phytophthora infestans [1]; [8]): 70% |
| CCC(C)OC(=O)CC(C)NS(=O)(=O)c1ccccc1 (centres unmarked) [Example 8, N-benzenesulfonyl-3-aminobutyric acid-sec butyl ester] | – | – | – | Control Efficacy % (Phytophthora infestans [1]; [5]): 100%; Control Efficacy % (Phytophthora infestans [1]; [6]): 92%; Control Efficacy % (Phytophthora infestans [1]; [7]): 87%; Control Efficacy % (Phytophthora infestans [1]; [8]): 50% |
| CCCC(C)OC(=O)CC(C)NS(=O)(=O)c1ccccc1 (centres unmarked) [Example 9, N-benzenesulfonyl-3-aminobutyric acid 1-methyl-1-butyl ester] | – | – | – | Control Efficacy % (Phytophthora infestans [1]; [5]): 99%; Control Efficacy % (Phytophthora infestans [1]; [6]): 97%; Control Efficacy % (Phytophthora infestans [1]; [7]): 82%; Control Efficacy % (Phytophthora infestans [1]; [8]): 62% |
| CCCCCCCOC(=O)CC(C)NC(=O)c1ccc(OC)cc1 (centres unmarked) [compound 12, D,L N-4-methoxybenzoyl-3-aminobutyric acid heptyl ester] | 85% | 100% | – | – |
| CCCCCCCOC(=O)CC(C)NC(=O)c1cc(C)cc(C)c1 (centres unmarked) [compound 13, D,L N-3,5-dimethylbezoyl-3-aminobutyric acid heptyl ester] | 72% | – | – | – |
| CCCCCCCOC(=O)CC(C)NC(=O)c1c(F)cccc1F (centres unmarked) [compound 14, D,L N-2,6-difluorobenzoyl-3-aminobutyric acid heptyl ester] | – | – | 100% | – |
| CCCCCCCOC(=O)CC(C)NC(=O)c1ccc(C(C)(C)C)cc1 (centres unmarked) [compound 15, D,L N-4-tertbutylbenzoyl-3-aminobutyric acid heptyl ester] | 74% | 97% | 97% | – |
| CCCCC(C)OC(=O)CC(C)NS(=O)(=O)c1ccc(C)cc1 (centres unmarked) [compound 16, D,L N-4-methylbenzenesulfonyl-3-aminobutyric acid i-methylpentyl ester] | 83% | – | 100% | – |
| CC(CC(=O)OCCCc1ccccc1)NS(=O)(=O)c1ccccc1 (centres unmarked) [compound 17, D,L N-benzenesulfonyl-3-aminobutyric acid 3-phenylpropyl ester] | – | 87% | 97% | – |
| CCCCC(C)OC(=O)CC(C)NC(=O)c1ccc(Cl)cc1 (centres unmarked) [compound 18, D,L N-4-cholrobenzoyl-3-aminobutyric acid 1-methylpentyl ester] | – | 87% | 91% | – |
| CC(CC(=O)OCCC(Cl)(Cl)Cl)NS(=O)(=O)c1ccccc1 (centres unmarked) [compound 19, D,L N-benzenesulfonyl-3-aminobutyric acid 2-(trichloromethyl)ethyl ester] | – | 83% | 94% | – |
| CCC(C)OC(=O)CC(C)NS(=O)(=O)c1ccc(C)cc1 (centres unmarked) [compound 20, D,L N-4-methylbenzenesulfonyl-3-aminobutyric 1-methylpropyll ester] | – | – | 100% | – |
| CCCCCCCOC(=O)CC(C)NC(=O)c1cccc(C)c1 (centres unmarked) [compound 22, D,L N-3-methylbezoyl-3-aminobutyric acid heptyl ester] | – | 83% | – | – |
| CCCCC(C)OC(=O)CC(C)NC(=O)c1cc(C)cc(C)c1 (centres unmarked) [compound 23, D,L N-3,5-dimethylbezoyl-3-aminobutyric acid 1-methylpentyl ester] | – | 73% | 100% | – |
| CCCCCCCOC(=O)CC(C)NC(=O)c1c(Cl)cccc1Cl (centres unmarked) [compound 24, D,L N-2,6-dichlorobenzoyl-3-aminobutyric acid heptyl ester] | – | – | 100% | – |
| CCCC(C)COC(=O)CC(C)NC(=O)c1c(Cl)cccc1Cl (centres unmarked) [compound 25, D,L N-2,6-dichlorobenzoyl-3-aminobutyric acid 2-methylpentyl ester] | – | 80% | 100% | – |
| Cc1ccc(C(=O)NC(C)CC(=O)OCCCc2ccccc2)cc1 (centres unmarked) [compound 26, D,L N-4-methylbenzoyl-3-aminobutyric acid 3-phenylpropyl ester] | – | – | 99% | – |
| Cc1cc(C)cc(C(=O)NC(C)CC(=O)OCCCl)c1 (centres unmarked) [compound 27, D,L N-3,5-dimethylbezoyl-3-aminobutyric acid 2-chloroethyl ester] | – | 73% | 97% | – |

| Compound | Control efficacy (%) 7d [3] | Control efficacy % 7 days [4] | Control efficacy % 10d (Plasmopara viticola) | further results |
| --- | --- | --- | --- | --- |
| COc1ccc(C(=O)NC(C)CC(=O)OCCCl)cc1 (centres unmarked) [compound 28, D,L N-4-methoxybenzoyl-3-aminobutyric acid 2-chloroethyl ester] | – | – | 91% | – |
| CC(CC(=O)OCCC(Cl)(Cl)Cl)NC(=O)c1ccccc1 (centres unmarked) [compound 29, D,L N-benzoyl-3-aminobutyric acid 2-(trichloromethyl)ethyl ester] | – | 70% | 91% | – |
| CCCCCCCOC(=O)CC(C)NC(=O)c1ccc(Cl)cc1 (centres unmarked) [compound 30, D,L N-4-cholrobenzoyl-3-aminobutyric acid heptyl ester] | – | – | 91% | – |
| COCC(C)OC(=O)CC(C)NS(=O)(=O)c1ccccc1 (centres unmarked) [compound 31, D,L N-benzenesulfonyl-3-aminobutyric acid 1-methyl-2-methoxyethyl ester] | – | – | 82% | – |
| CCCCCCCOC(=O)CC(C)NC(=O)c1ccccc1C (centres unmarked) [compound 32, D,L N-2-methylbezoyl-3-aminobutyric acid heptyl ester] | 83% | 77% | – | – |
| Cc1ccc(S(=O)(=O)NC(C)CC(=O)OCCBr)cc1 (centres unmarked) [compound 33, D,L N-4-methylbenzenesulfonyl-3-aminobutyric acid 2-bromoethyl ester] | – | 75% | – | – |
| CCCCCCCOC(=O)CC(C)NS(=O)(=O)c1ccc(C)cc1 (centres unmarked) [compound 34, D,L N-4-methylbenzenesulfonyl-3-aminobutyric acid heptyl ester] | – | 70% | – | – |
| CCCOC(=O)CC(C)NS(=O)(=O)c1ccccc1 (centres unmarked) [compound 41, D,L N— benzenesulfonyl-3-aminobutyric acid propyl ester] | 77% | – | – | – |
| C=CCOC(=O)CC(C)NC(=O)c1ccccc1 (centres unmarked) [compound 42, N-benzoyl-3-aminobutyric acid-2 propenyl ester] | 77% | – | – | – |
| CCCCCC(C)OC(=O)CC(C)NC(=O)c1ccc(C)cc1 (centres unmarked) [compound 43, D,L N-4-methylbenzoyl-3-aminobutyric acid 1-methylhexyl ester] | 75% | – | – | – |
| CCCCCCCCCC(C)OC(=O)CC(C)NC(=O)c1ccc(C)cc1 (centres unmarked) [compound 44, D,L N-4-methylbenzoyl-3-aminobutyric acid 1-methyldecanyl ester] | 74% | – | – | – |
| CCCCCCCOC(=O)CC(C)NC(=O)c1ccc(C)c(C)c1 (centres unmarked) [compound 45, D,L N-3,4-dimethylbezoyl-3-aminobutyric acid heptyl ester] | 71% | – | – | – |
| CCCCC(C)OC(=O)CC(C)NC(=O)c1ccc(C)cc1 (centres unmarked) [compound 46, D,L N-4-methylbezoyl-3-aminobutyric acid 1-methylpentyl ester] | 69% | – | – | – |
| CNc1ccccc1C(=O)NC(C)CC(=O)OC (centres unmarked) [compound 47, D,L N-2-methylaminobenzoyl-3-aminobutyric acid methyl ester.] | 81% | – | – | – |
| CCCCC(C)OC(=O)CC(C)NS(=O)(=O)c1ccc(Cl)cc1 (centres unmarked) [compound 50, D,L N-4-chlorobenzensulfonyl-3-aminobutyric acid 1-methylpentyl ester] | 92% | – | – | – |
| CC(CC(=O)OCCCc1ccccc1)NS(=O)(=O)c1ccccc1 (centres unmarked) [compound 51, D,L N-benzensulphonyl-3-aminobutyric acid 3-phenylpropyl ester] | – | 87% | 97% | – |
| CC(CC(=O)Oc1cc(Cl)cc(Cl)c1)NS(=O)(=O)c1ccccc1 (centres unmarked) [compound 53, D,L N-benzensulfonyl-3-aminobutyric acid 3,5-dichlorophenyl ester] | 100% | – | – | – |
| CCCCCCCCOC(=O)CC(C)NC(=O)c1ccc(C)c(C)c1 (centres unmarked) [compound 54, D,L N-3,4-dimethylbenzoyl-3-aminobutyric acid octyl ester] | 69% | – | – | – |
| N-β-methylbenzoyl-1-aminobutyric acid-1-methyl-1-pentyl ester [Example 10] | – | – | – | Control Efficacy % (Phytophthora infestans [1]; [5]): 100%; Control Efficacy % (Phytophthora infestans [1]; [6]): 100%; Control Efficacy % (Phytophthora infestans [1]; [7]): 97%; Control Efficacy % (Phytophthora infestans [1]; [8]): 87% |
